“And” between values parts separate entries of the source, which are not always exact repeats. Identical values can stand only once.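 GI50 = concentration required for 50% inhibition of growth. Definition used: TGI = concentration required for complete inhibition of growth.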
Columns and labels:
Test in all cases: NCI-60 cell line screen, 384-well format
786-0 renal = system: 786-0 renal
A498 renal = system: A498 renal
A549 NSCLC = system: A549 NSCLC
ACHN renal = system: ACHN renal
BT-549 breast = system: BT-549 breast
CAKI-1 renal = system: CAKI-1 renal
CCRF-CEM leukemia = system: CCRF-CEM leukemia
COLO 205 colon = system: COLO 205 colon
DU-145 prostate = system: DU-145 prostate
EKVX NSCLC = system: EKVX NSCLC
HCC-2998 colon = system: HCC-2998 colon
HCT-116 colon = system: HCT-116 colon
HCT-15 colon = system: HCT-15 colon
HL-60(TB) leukemia = system: HL-60(TB) leukemia
HOP-62 NSCLC = system: HOP-62 NSCLC
HOP-92 NSCLC = system: HOP-92 NSCLC
HS 578T breast = system: HS 578T breast
HT29 colon = system: HT29 colon
IGROV1 ovarian = system: IGROV1 ovarian
K-562 leukemia = system: K-562 leukemia
KM12 colon = system: KM12 colon
LOX IMVI melanoma = system: LOX IMVI melanoma
M14 melanoma = system: M14 melanoma
MALME-3M melanoma = system: MALME-3M melanoma
MCF7 breast = system: MCF7 breast
MDA-MB-231 breast = system: MDA-MB-231 breast
MDA-MB-435 melanoma = system: MDA-MB-435 melanoma
MDA-MB-468 breast = system: MDA-MB-468 breast
MOLT-4 leukemia = system: MOLT-4 leukemia
NCI-H226 lung = system: NCI-H226 lung
NCI-H23 lung = system: NCI-H23 lung
NCI-H322M lung = system: NCI-H322M lung
NCI-H460 NSCLC = system: NCI-H460 NSCLC
NCI-H522 lung = system: NCI-H522 lung
NCI/ADR-RES ovarian = system: NCI/ADR-RES ovarian
OVCAR-3 ovarian = system: OVCAR-3 ovarian
OVCAR-4 ovarian = system: OVCAR-4 ovarian
OVCAR-5 ovarian = system: OVCAR-5 ovarian
OVCAR-8 ovarian = system: OVCAR-8 ovarian
PC-3 prostate = system: PC-3 prostate
RPMI-8226 leukemia = system: RPMI-8226 leukemia
RXF 393 renal = system: RXF 393 renal
SF-268 CNS = system: SF-268 CNS
SF-295 CNS = system: SF-295 CNS
SF-539 CNS = system: SF-539 CNS
SK-MEL-2 melanoma = system: SK-MEL-2 melanoma
SK-MEL-28 melanoma = system: SK-MEL-28 melanoma
SK-MEL-5 melanoma = system: SK-MEL-5 melanoma
SK-OV-3 ovarian = system: SK-OV-3 ovarian
SN12C renal = system: SN12C renal
SNB-19 CNS = system: SNB-19 CNS
SNB-75 CNS = system: SNB-75 CNS
SR leukemia = system: SR leukemia
SW-620 colon = system: SW-620 colon
T-47D breast = system: T-47D breast
TK-10 renal = system: TK-10 renal
U251 glioblastoma = system: U251 glioblastoma
UACC-257 melanoma = system: UACC-257 melanoma
UACC-62 melanoma = system: UACC-62 melanoma
UO-31 renal = system: UO-31 renal

In the case of Oc1cccc(-c2nc(N3CCOCC3)c3oc4ncccc4c3n2)c1, the GI50 ([…]-0 renal) was 297 nM, the TGI (786-0 renal) was 1480 nM and the GI50 (A498 renal) was 2050 nM and 598 nM. The TGI (A498 renal) was 4690 nM and 2870 nM, the GI50 (A549 NSCLC) was 251 nM and 353 nM and the TGI (A549 NSCLC) was 1680 nM and 15400 nM. The GI50 (ACHN renal) was 70.7 nM and 77.9 nM, the TGI (ACHN renal) was 2440 nM and 563 nM and the GI50 (BT-549 breast) was 27.9 nM and 125 nM. The TGI (BT-549 breast) was 347 nM and 493 nM, the GI50 (CAKI-1 renal) was 395 nM and 255 nM and the TGI (CAKI-1 renal) was 5220 nM and 12300 nM. The GI50 (CCRF-CEM leukemia) was 202 nM, the TGI (CCRF-CEM leukemia) was 2730 nM and the GI50 (COLO 205 colon) was 4480 nM and 5550 nM. The TGI (COLO 205 colon) was 33600 nM and 27200 nM, the GI50 (DU-145 prostate) was 154 nM and 112 nM and the GI50 (EKVX NSCLC) was 111 nM and 135 nM. For the same compound, the TGI (EKVX NSCLC) was 468 nM and 504 nM, the GI50 (HCC-2998 colon) was 147 nM and 367 nM and the TGI (HCC-2998 colon) was 4250 nM and 8570 nM. The GI50 (HCT-116 colon) was 982 nM and 466 nM, the TGI (HCT-116 colon) was > 100000 nM and the GI50 (HCT-15 colon) was 128 nM and 104 nM. For the same compound, the TGI (HCT-15 colon) was > 100000 nM and 38500 nM, the GI50 (HL-60(TB) leukemia) was 62.2 nM and 20.5 nM and the TGI (HL-60(TB) leukemia) was 978 nM and 217 nM. The GI50 (HOP-62 NSCLC) was 429 nM and 231 nM, the TGI (HOP-62 NSCLC) was 3820 nM and 2810 nM and the GI50 (HOP-92 NSCLC) was 50.6 nM and 111 nM. For the same compound, the GI50 (HS 578T breast) was 61.9 nM and 86.1 nM, the TGI (HS 578T breast) was 288 nM and 617 nM and the GI50 (HT29 colon) was 3280 nM and 3420 nM. For the same compound, the TGI (HT29 colon) was > 100000 nM, the GI50 (IGROV1 ovarian) was 115 nM and 155 nM and the TGI (IGROV1 ovarian) was 393 nM and 380 nM. For the same compound, the GI50 (K-562 leukemia) was 327 nM, the TGI (K-562 leukemia) was > 100000 nM and the GI50 (KM12 colon) was 312 nM and 305 nM. For the same compound, the TGI (KM12 colon) was > 100000 nM, the GI50 (LOX IMVI melanoma) was 318 nM and 207 nM and the TGI (LOX IMVI melanoma) was 1570 nM and 1060 nM. For the same compound, the GI50 (M14 melanoma) was 260 nM and 155 nM, the GI50 (MALME-3M melanoma) was 40.3 nM and 83.5 nM and the GI50 (MCF7 breast) was 208 nM and 99 nM. The TGI (MCF7 breast) was 23300 nM and 19500 nM, the GI50 (MDA-MB-231 breast) was 289 nM and 500 nM and the TGI (MDA-MB-231 breast) was 47600 nM and > 100000 nM. For the same compound, the GI50 (MDA-MB-435 melanoma) was 161 nM and 162 nM, the TGI (MDA-MB-435 melanoma) was 823 nM and 767 nM and the GI50 (MDA-MB-468 breast) was 289 nM and 291 nM. For the same compound, the TGI (MDA-MB-468 breast) was 1140 nM and 1240 nM, the GI50 (MOLT-4 leukemia) was 23 nM and 39.1 nM and the TGI (MOLT-4 leukemia) was 230 nM and 195 nM. For the same compound, the GI50 (NCI-H226 lung) was 3470 nM and 2290 nM, the TGI (NCI-H226 lung) was 22400 nM and 5680 nM and the GI50 (NCI-H23 lung) was 306 nM and 324 nM. For the same compound, the TGI (NCI-H23 lung) was 16100 nM and 17700 nM, the GI50 (NCI-H322M lung) was 229 nM and 106 nM and the TGI (NCI-H322M lung) was 2030 nM and 642 nM. The GI50 (NCI-H460 NSCLC) was 155 nM and 44.1 nM, the GI50 (NCI-H522 lung) was 81.6 nM and 55.9 nM and the TGI (NCI-H522 lung) was 524 nM and 501 nM. The GI50 (NCI/ADR-RES ovarian) was 240 nM and 151 nM, the TGI (NCI/ADR-RES ovarian) was > 100000 nM and 18000 nM and the GI50 (OVCAR-3 ovarian) was 54 nM and 118 nM. The TGI (OVCAR-3 ovarian) was 398 nM and 408 nM, the GI50 (OVCAR-4 ovarian) was 350 nM and 87.4 nM and the TGI (OVCAR-4 ovarian) was 3690 nM and 613 nM. For the same compound, the GI50 (OVCAR-5 ovarian) was 3540 nM and 2560 nM, the GI50 (OVCAR-8 ovarian) was 197 nM and the TGI (OVCAR-8 ovarian) was > 100000 nM. For the same compound, the GI50 (PC-3 prostate) was 40.8 nM and 39.3 nM, the TGI (PC-3 prostate) was 1730 nM and 299 nM and the GI50 (RPMI-8226 leukemia) was 116 nM and 44.9 nM. For the same compound, the TGI (RPMI-8226 leukemia) was 419 nM and 184 nM, the GI50 (RXF 393 renal) was 95.7 nM and 207 nM and the TGI (RXF 393 renal) was 337 nM and 2860 nM. For the same compound, the GI50 (SF-268 CNS) was 239 nM and 394 nM, the TGI (SF-268 CNS) was 10100 nM and 17900 nM and the GI50 (SF-295 CNS) was 1290 nM and 2370 nM. The TGI (SF-295 CNS) was 4020 nM and 8530 nM, the GI50 (SF-539 CNS) was 114 nM and 143 nM and the TGI (SF-539 CNS) was 1590 nM and 11400 nM. The GI50 (SK-MEL-2 melanoma) was 808 nM, the TGI (SK-MEL-2 melanoma) was 4720 nM and the GI50 (SK-MEL-28 melanoma) was 96.3 nM and 123 nM. The GI50 (SK-MEL-5 melanoma) was 103 nM and 77.6 nM, the TGI (SK-MEL-5 melanoma) was 498 nM and 279 nM and the GI50 (SK-OV-3 ovarian) was 81.1 nM and 120 nM. For the same compound, the GI50 (SN12C renal) was 121 nM and 43.3 nM, the GI50 (SNB-19 CNS) was 1260 nM and 1380 nM and the TGI (SNB-19 CNS) was > 100000 nM and 24300 nM. For the same compound, the GI50 (SNB-75 CNS) was 33.4 nM and 53.7 nM, the GI50 (SR leukemia) was 207 nM and 61.2 nM and the TGI (SR leukemia) was 890 nM and 205 nM. For the same compound, the GI50 (SW-620 colon) was 561 nM, the TGI (SW-620 colon) was > 100000 nM and the GI50 (T-47D breast) was 150 nM and 215 nM. The GI50 (TK-10 renal) was 331 nM and 167 nM, the TGI (TK-10 renal) was 1920 nM and 695 nM and the GI50 (U251 glioblastoma) was 670 nM and 390 nM. The TGI (U251 glioblastoma) was > 100000 nM and 19600 nM, the GI50 (UACC-257 melanoma) was 535 nM and 350 nM and the TGI (UACC-257 melanoma) was 5390 nM and 3810 nM. The GI50 (UACC-62 melanoma) was 305 nM and 400 nM, the TGI (UACC-62 melanoma) was 1460 nM and 2300 nM and the GI50 (UO-31 renal) was 60.9 nM. For the same compound, the TGI (UO-31 renal) was 295 nM.
